Data taken from patent publication US10046001B2, “Compositions and methods for reducing intraocular pressure” (UNIVERSITY OF MIAMI, priority 2013, dated 2018).

Legend:
[1] = system: trabecular meshwork (TM) primary cells; assay: mobility and cell shape changes of primary TM cells exposed to lipids (time-lapse imaging); assay type: cell-based, human; details: for mobility and cell shape changes for trabecular meshwork (TM) primary cells due to exposure to lipids: 10 pmoles of lipid; for dynamics of filopodia formation: exposure to lipids vs vehicle
Description: FIGS. 2A and 2B show representative images of the effect of lipid on trabecular meshwork primary cells. The time lapsed images of cell at indicated time interval. A. The control TM cells were subjected to vehicle (5% DMSO) in phosphate buffered saline. […] A protrusion of filopodia in a cell is indicated by thick arrow head. At 2 minutes after addition of vehicle to 16 minutes, the protrusion remains unchanged. B. TM cells treated with 10 pmoles of lipid. Most cells have protrusions with only a few cells without them. The filopodia in lipid treated cells are dynamic, they undergo dynamic retraction starting at 1 or 2 minutes after addition of lipid in the serum free media, indicated by arrows. At 16 minutes filopodia are largely retracted.
Modulation of cell motility and shape. Compared to controls (vehicle-10% DMSO only treated) shape of primary TM cells (FIG. 2A), exposure to lipids changed the shape of cells promoting filopodia and motility (FIG. 2B). All these lipids promote contraction of filopodia (FIG. 2B, arrows) and well as expansion. These images were derived from time lapsed video imaging of primary TM cells and summary data from several donor derived cells. The exposure to lipids render the cells more dynamic with respect to filopodia formation and their dynamic expansion-contraction (Summarized in Table 1 (FIG. 11)). The motility and filopodia formation is affected by a variety of intrinsic and extrinsic factors such as age of the donors from where cell have been derived, cell density, composition of the medium, environmental temperature and incubation gas composition. The age of the donor and cell density are the most prominent factors.
TM cell culture experiments: Primary human TM cells were cultured from cadaveric corneo-scleral sections. The cells were isolated through a blunt dissection of the area containing and adjacent to the canal of Schlemm, followed by a 2 hour digestion in DPBS (cat #21-030-CV, Mediatech Inc, Manassas, Va.) suspension of 20% 0.01 μg/μL collagenase-A (cat #LS004194, Worthington, Lakewood N.J.). The blunt dissection and the proteolytic treatment were performed inside a 12 well culture plate (cat #665-180 Greiner Bio-One, Neuburg, Germany). Culture media containing [DMEM 1× (cat #10-017-CM, Mediatech Inc), 10% heat inactivated FBS (cat #35-016-CV, Mediatech), 0.5% 1.7 mM L-Glutamine (cat #G6392, Sigma-Aldrich), 1% Antibiotic-Antimycotic Solution (cat #30-004-CL, Mediatech)] was added after 2 hours to terminate digestion. A sterile microscopy slide (cat #56700-194, VMR) was placed on top of the tissue fragment to ensure bottom-contact and immobility inside the media well. The sections were cultured at 37° C. in 5% CO2 inside a cell culture incubator. Culture was washed with 1× DPBS 7 days later to remove tissue debris; media change occurred every 3-4 days. Thus obtained cells were trypsin-treated (cat #25-050-C1, Mediatech) and accordingly distributed the day before the transfection complexes were created using the ratio of 0.4 μg/uL of respective vector DNA to the transfection agent (Lipofectamine 2000, cat #11668-019, Invitrogen), prepared accordingly to the manufacturer's instructions Following addition to respective wells, the transfection reactions were allowed to take place over a 2.5 hour span, after which they were terminated through the addition of cell culture media. Cell assays and immunohistochemical analysis were performed at or within a 24 hour time mark in order to observe and track the effects of vector expression on morphological changes. Time-lapse microscopy was performed using cells grown on glass bottom chamber slides (cat #154534, Lab-Tek, Thermo Fisher Scientific Inc., Rochester N.Y.) and Zeiss AxioVert 200M, for the duration of 20 hours, with a snapshot every 15 minutes, starting at 24 hours post-transfection. Immunohistochemical analysis was performed on cells fixed with 4% PFA (cat #19943, USB Corp, Cleveland, Ohio) at time intervals of 0, 24, and 29 hours post-transfection. […]

DBA/2J mice = assay: IOP lowering after topical application in DBA/2J mice; assay type: in vivo, mouse; details: DBA/2J mice, topical 10 pmole in 5% DMSO, once daily
Description: The right eye was treated with vehicle alone and left eye treated with lipid. Control had both eyes treated with vehicle. A. In DBA/2J mice the indicated lipid in vehicle or control (vehicle only) were administered one daily at around 7.5 months of age in mice which were noted to have a IOP≥18 mm of Hg (20% increase from an average baseline of 15 mm of Hg was employed as treatment point). The average IOP recordings are shown for indicated lipids. B. A 10 picomole each of six PC (13:0/13:0; PE (18:0/18:0), Lyso-PS 18:0, PS 18:1, Sphinganine and C17S1P) were combined and applied as a topical dose once daily for up to 7 days on DBA/2J mouse eyes in 5% DMSO (vehicle). […] Transgenic myocillin mice [Tg-MYOC(Y437H)] subjected to a topical dose of indicated lipids as noted above (FIG. 5C). The IOP lowering compared to control was noted on day 4 and 6 as shown.
Intraocular pressure lowering in mouse models. The endogenous lipids lowered IOP in a DBA/2J mouse model of glaucoma (FIG. 5A). DBA/2J is the only known mouse animal where elevation of IOP occur spontaneously. Although this mouse also suffers from pigmentary dispersion, however, elevation of IOP appears not to correlate with […]. The lipids as indicated were applied as a topical dose (10 pmole in 5% DMSO as vehicle). The 5% DMSO only vehicle served as a control (FIG. 5A). […] A 10 picomole each of six PC (13:0/13:0; PE (18:0/18:0), Lyso-PS 18:0, PS 18:1, Sphinganine, and C17S1P) were combined and applied as a topical dose once daily for up to 7 days on DBA/2J mouse eyes in 5% DMSO (vehicle) (in other words, 10 picomoles of each PC was included). […] In addition to the DBA/2J model described here, these endogenous lipids lowered IOP in cochlin and connective tissue growth factor (CTGF) over-expression models. […] Thus the endogenous lipids assessed here lowered IOP in vastly different DBA/2J and MYOC(Y437H) mouse models as well as in cochlin and CTGF overexpression models covering a broad swath of four rodent glaucoma models that encompass induced as well as spontaneous IOP elevation.
Topical application of lipids and measurement of IOP: The lipids were topically applied as 1 μl drops with 10 pmole lipids. Pressure was measured with a tonolab (Colonial
Medical Supplies, N.H.) or with an assembled cannulation device, used in our laboratory. An initial assessment had utilized 10% DMSO as vehicle. However, all data reported here utilized 5% DMSO.

| SMILES | mobility and cell shape changes for trabecular meshwork (TM) primary cells due to exposure to lipids [1] | lowering of IOP (DBA/2J mice) | dynamics of filopodia formation [1] |
| --- | --- | --- | --- |
| CCCCCCCCCCCCCCC[C@@H](O)[C@@H](N)CO [Sphinganine] | showed an effect | lowering of IOP | – |
| CCCCCCCCCCCCCC[C@@H](O)[C@@H](N)COP(=O)(O)O [C17 Sphinganine-1-phosphate] | showed an effect | lowering of IOP | – |
| CCCCCCCC/C=C\CCCCCCCC(=O)N[C@@H](CO)[C@H](O)CCCCCCCCCCCCCCC [Cer(d18:0/18:1(9Z))] | showed an effect | lowering of IOP | – |
| CCCCC/C=C\C/C=C\C/C=C\C/C=C\CCCC(=O)O[C@H](COC(=O)CCCCCCCCCCCCCCCCC)COP(=O)(O)OC1[C@H](O)[C@H](O)C(O)[C@H](O)[C@H]1O (some centres unmarked) [PI(18:0/20:4)5Z,8Z,11Z,14Z))] | showed an effect | lowering of IOP | – |
| CCCC/C=C\CCCCCCCC(=O)O[C@H](COC(=O)CCCCCCCCCCC)COP(=O)([O-])OCC[N+](C)(C)C [PC(12:0/14:1(9Z))] | lack of any effect | not | exception |
| CCCC/C=C\C/C=C\CCCCCCCC(=O)O[C@H](COC(=O)CCCCCCCCCCC)COP(=O)(O)OC1C(O)C(O)C(O)[C@@H](O)C1O (some centres unmarked) [PI(12:0/17:2)9Z,12Z))] | showed an effect | lowering of IOP | – |
| CCCCCCCC/C=C\CCCCCCCCCCCCCCCC(=O)N[C@@H](CO)[C@H](O)/C=C/CCCCCCCCCCCCC [Cer(d18:1/26:1(17Z))] | showed an effect | lowering of IOP | – |
| CCCCCCCCCCCCCC(=O)OC[C@@H](O)COP(=O)(O)OC[C@H](N)C(=O)O [PS(14:0/0:0)] | showed an effect | lowering of IOP | – |
| CCCCCCCCCCCCCCCCCC(=O)OC[C@@H](O)COP(=O)(O)OC[C@H](N)C(=O)O [PS(18:0/0:0)] | showed an effect | lowering of IOP | – |
| CCCCCCCCCCCCCCCCCC(=O)OC[C@H](COP(=O)(O)OCCN)OC(=O)CCCCCCCCCCCCCCCCC [PE(18:0/18:0)] | showed an effect | lowering of IOP | – |
| CCCCCCCCCCC/C=C/[C@@H](O)[C@H](COP(=O)([O-])OCC[N+](C)(C)C)NC(=O)CCCCCCCCCCCCCCCCCCCCCCCC [SM(d16:1/25:0)] | showed an effect | lowering of IOP | – |
| CCCCCCCCCCCCC(=O)OC[C@H](COP(=O)([O-])OCC[N+](C)(C)C)OC(=O)CCCCCCCCCCCC [PC(13:0/13:0), 1,2-ditridecanoyl-sn-glycero-3-phosphocholine, reference compound] | lack of any effect | not | exception |
